From patent US11071746B2, “Compositions and methods for protecting organs from ischemia/reperfusion injury associated with transplantation” (THE TRUSTEES OF THE UNIVERSITY OF PENNSYLVANIA, priority 2016, dated 2021)

Columns and labels:
IL-6 = assay: qRT-PCR gene expression in EVLP lung tissues: IL-6; parameters: species or system human; conditions: EVLP #4, treated right lung vs vehicle-treated lung
Description: (§1) GENE EXPRESSION LEVEL OF THE NRF2-REGULATED STRESS RESPONSE ENZYME HO-1: In a separate study (EVLP #4), SDG (LGM2605) was instilled only in one lung (right) while vehicle control was instilled in the contralateral lung (FIG. 4). The concentration of the drug (200 mg/lung) was kept the same as above. […] A drop in the left lung may reflect action of SDG (LGM2605) on that lung through the perfusate (we have shown above that some of the drug appears into the systemic circulation).
(§2) Our findings confirm that SDG decreases inflammatory parameters in human lung tissues during ischemia.

COX-2 = assay: qRT-PCR gene expression in EVLP lung tissues: COX-2; conditions: aerosolized instillation, human EVLP lung tissues
Description: as §1
GENE EXPRESSION LEVELS OF THE COX-2 (AN ENZYME PROMOTING INFLAMMATION AND PAIN) DECREASE IN HUMAN LUNG (EVLP) TISSUES TREATED WITH LGM2605 (SDG): Cyclo-oxygenease-2 is an enzyme responsible for the formation of prostanoids such as thromboxane and prostanglandins. Pharmacological inhibition of COX can provide relief from symptoms of inflammation and pain. […] A drop in the vehicle-treated lung may reflect action of the drug via the perfusate (systemic circulation—FIG. 8).

GSTMu1 = assay: qRT-PCR gene expression in EVLP lung tissues: GSTM1; parameters: species or system human; conditions: EVLP #4, treated lung vs vehicle-treated lung, 120' sampling time
Description: as §1
(§3) GENE EXPRESSION LEVELS OF THE NRF2-REGULATED ANTIOXIDANT ENZYMES NQO1 AND GSTM1 INCREASE IN HUMAN LUNG (EVLP) TISSUES TREATED WITH LGM2605 (SDG): Nrf2 is a transcription factor that regulates the expression of antioxidant and cytoprotective genes such as NQO-1 and GSTMu1. […] Our findings confirm that SDG boosts endogenous antioxidant defenses in human lung tissues during ischemia (FIG. 6).

IL-1β = assay: qRT-PCR gene expression in EVLP lung tissues: IL-1β; parameters: species or system human; conditions: EVLP #4, treated right lung vs vehicle-treated lung
Description: as §1, §2

NQO-1 = assay: qRT-PCR gene expression in EVLP lung tissues: NQO1; parameters: species or system human; conditions: EVLP #4, treated lung vs vehicle-treated lung, 120' sampling time
Description: as §1, §3

hemeoxygenase-1 (HO-1) = assay: qRT-PCR gene expression in EVLP lung tissues: HO-1; parameters: species or system human; conditions: EVLP #4, 200 mg/lung instilled in right lung, vehicle in contralateral lung
Description: as §1

human donor lungs = assay: Ex vivo functional assessment (oxygenation, compliance) of EVLP human donor lungs; conditions: aerosolized drug, EVLP #3 human lung
Description: (§4) Donor lungs were offered to our lung-transplantation program through our local organ procurement organization (Gift of Life) and were de-identified. Donor lungs that met the entry criteria (i.e., non-transplantable) were retrieved, delivered to our center by means of standard cold-storage transport in a low-potassium dextran solution (Perfadex, Vitrolife), and perfused in the EVLP system for 3-6 hours. Lungs were considered suitable for transplantation if during EVLP the PO2:FIO2 ratio—that is, the partial pressure of oxygen ex vivo (PO2) to the fraction of inspired oxygen (FIO2)—was 350 mm Hg or more and if deterioration from baseline levels of all three physiological measurements (pulmonary vascular resistance, dynamic compliance, and peak inspiratory pressure) was less than 15% while the lungs were ventilated with the use of a tidal volume of 7 ml per kilogram of donor body weight and a rate of 7 breaths per minute during the perfusion period (FIG. 1)
(§5) Technique: The acellular EVLP technique has been described in detail elsewhere (Cypel et al., N Engl J Med. 2011 Apr. 14; 364(15):1431-40). After 3-6 hours of EVLP, the lungs were cooled to 4° C. over a period of 10 minutes. Thereafter, perfusion and ventilation were stopped (with FIO2 changed to 0.21 for the purpose of lung storage), and the trachea was clamped at full inspiration to maintain the lungs in a state of inflation. The lungs were then stored at 4° C. in Perfadex until transplantation.
Ex Vivo Functional Assessment: For the functional assessment ex vivo, tidal volume was set at 10 ml per kilogram of donor body weight and 10 breaths per minute, with FIO2 at 1.0. Lung function was evaluated hourly during EVLP according to the following calculations: PO2=[left atrial PO2−pulmonary-artery PO2 (in mm Hg)], and pulmonary vascular resistance=[(pulmonary-artery pressure-left atrial pressure)×80]÷pulmonary-artery flow (in dynes·seconds·cm^−5), dynamic compliance (in milliliters per centimeter of water), and peak inspiratory pressure (in centimeters of water). […]

[1] = LC/MS/MS drug levels in lung tissue, BALF and perfusate during ex vivo lung perfusion (EVLP); parameters: species or system human
Description: as §4, §5
LGM2605 (SDG) ACCUMULATES IN HUMAN LUNG TISSUES: Using LC/MS/MS analytical methodologies, we determined synthetic SDG (LGM2605) levels in left and right lung tissues, in bronchoalveolar lavage fluid (BALF) and perfusate fluid over multiple time points spanning from 30 minutes post aerosolized instillation of 200 mg drug/lung, to 360 minutes (FIG. 2). Of importance is that aerosolized SDG (LGM2605) (i.e, instilled in airways), leaks into the systemic circulation and can be detected in the perfusate for at least 240 minutes. Importantly, levels in lung tissue biopsies show a peak of drug by 120 minutes, persisting for up to 240 minutes. Additionally, levels in BALF persist beyond 360 min.

[2] = aerosolized instillation of 200 mg drug/lung, human EVLP lungs, lung tissue biopsies

COc1cc(C[C@@H](CO[C@@H]2O[C@H](CO)[C@@H](O)[C@H](O)[C@H]2O)[C@H](CO[C@@H]2O[C@H](CO)[C@@H](O)[C@H](O)[C@H]2O)Cc2ccc(O)c(OC)c2)ccc1O [LGM2605, secoisolariciresinol diglucoside]
IL-6 gene expression change (IL-6): significantly reduced | COX-2 gene expression change (COX-2): blocks entirely | time to entire block of COX-2 expression after instillation (COX-2): ≤ 50 min | GSTMu1 gene expression change (GSTMu1): robust increase | IL-1β gene expression change (IL-1β): significantly reduced | NQO-1 gene expression change (NQO-1): robust increase | HO-1 gene expression change (hemeoxygenase-1 (HO-1)): drop | dynamic compliance (human donor lungs): improving | static compliance (human donor lungs): improving | P/F ratio (oxygenation) after treatment (human donor lungs; improved from 200 before drug): > 350 | persistence of drug levels in BALF ([1]; aerosolized instillation of 200 mg drug/lung, human EVLP lungs, BALF): > 360 min | persistence of drug levels in lung tissue biopsies [1, 2]: up to 240 minutes | time of peak of drug in lung tissue biopsies [1, 2]: ≤ 120 min | time drug can be detected in the perfusate ([1]; aerosolized instillation of 200 mg drug/lung, human EVLP lungs, perfusate): at least 240 minutes | accumulation in lung ([1]; regardless of route of delivery (inhaled or intravenous)): accumulates in lung
